Results as given in patent publication US7964221B2, “Composition and methods of use of an immunomodulator” (priority 2006, dated 2011).

Experiments:
CD4 cells = assay: 32-week three-arm trial in HIV-infected individuals: CD4 cell counts; format: in vivo, human; conditions: for Change in CD4 cell counts from baseline: OT analysis
Excerpt: (§1) All participants were antiretroviral drug naive.
(§2) Laboratory abnormalities were graded.

[1] = 32-week three-arm HIV trial: body weight; format: in vivo, human
Excerpt: as §1, §2

For “zidovudine (AZT), lamividine (3TC), and efavirenz (EFV) [AZT/3TC/EFV]”, the “Change in CD4 cell counts from baseline” value (CD4 cells; 12 weeks of treatment) was “+122 cells/mm^3”, the “Change in CD4 cell counts from baseline” value (CD4 cells; 20 weeks) was “+108 cells/mm^3” and the “Change in CD4 cell counts from baseline” value (CD4 cells; 32 weeks) was “+102 cells/mm^3”. For the same substance, the “CD4 counts After” value (CD4 cells; after therapy) was 463, the “CD4 counts Before” value (CD4 cells; before therapy (baseline)) was 361 and the “Body weight After” value ([1]; after therapy) was 65.6. The “Mean values for baseline body weight” value ([1]; baseline, mean ± SD) was 64.2 ± 8.9 kg, the “Body weight Before” value ([1]; before therapy) was 64.2 and the “Mean weight values at the end of study” value ([1]; end of study) was 65.6 ± 7.3 kg. For the same substance, the Average weight gain ([1]; week 32) was 1.4 kg.
